{"source": "patent US12680077B2", "about": "“Generating populations of human blood and blood vessel progenitors from pluripotent stem cells” (The Board of Trustees of the Leland Stanford Junior …, priority 2020, dated 2026)", "format_in_all_cases": "cell-based, human", "key": {"[1]": {"test_system": "hPSC-derived day-3 trunk artery cells", "experiment": "Differentiation of hPSC-derived day-3 trunk artery cells into hemogenic endothelium / HSC-like cells (qPCR, flow cytometry)", "conditions": "24 hours, OSM and LIF withheld together", "method": "(§1) FIG. 4: Efficient generation of trunk artery and hemogenic endothelium from hPSCs within 3 and 6 days, respectively. A) Cartoon of the strategy to generate trunk artery, hemogenic endothelium and HSC-like cells. B) Retinoic acid (RA) signaling induces HOXA1-5 genes in hPSC-derived trunk artery cells; day 1 hPSC-derived primitive streak cells were differentiated into trunk artery cells over the course of 48 hours, in the presence or absence of an RA agonist (TTNPB). C) Flow cytometry (left) and qPCR (right) of hPSC-derived trunk artery cells; for the qPCR data, gene expression is normalized for each gene to undifferentiated hPSCs (gene expression levels in hPSCs=1.0); as a negative control, hPSC-derived artery cells (white bar, generated in the absence of RA agonist) is shown. D) hPSC-derived day-3 trunk artery cells were differentiated into hemogenic endothelium for 24 hours in the complete hemogenic endothelium medium (Forskolin, SB505124, OSM and LIF), or in media where either Forskolin was withheld; SB505124 was withheld; or both OSM and LIF were withheld.\nFIG. 12: Optimizing the generation of trunk artery, hemogenic endothelium and HSC-like cells from hPSCs. A) Retinoic acid (RA) signaling induces HOXA1-5 genes in hPSC-derived trunk artery cells; day 1 hPSC-derived primitive streak cells were differentiated into trunk artery cells over the course of 48 hours, in the presence or absence of RA agonists (ATRA, AM580 or TTNPB) on day 2 alone (for 24 hours), day 3 alone (for 24 hours) or day 2-3 interval (for 48 hours) B) hPSC-derived trunk artery cells can be generated in defined conditions on a defined extracellular matrix (ECM); hPSCs were plated on Geltrex (an undefined ECM matrix); bulk laminin; or recombinant vitronectin or laminin-511. C) hPSCs were differentiated into day-3 artery cells (without RA agonist) or day-3 trunk artery cells (with RA agonist); and then were further differentiated over the course of 6 further days into day-9 HSC-like cells. […]\n(§2) Quantitative PCR. […]"}, "[2]": {"test_system": "day 6 hPSC-derived hemogenic endothelium", "experiment": "Differentiation of day 6 hemogenic endothelium into day 9 HSC-like cells (qPCR, flow cytometry)", "conditions": "for expression of GATA1 and CD45RA: SR1 and UM171 applied together, days 6-9; for formation of hPSC-derived HSC-like cells: presence vs absence of both UM171 and SR1, 3 days, flow cytometry for CD45+ CD45RA- on day 9", "method": "FIG. 13: Optimizing the generation of, and characterizing, hPSC-derived HSC-like cells. […] B) qPCR was performed during hPSC differentiation into HSC-like cells every 24 hours; gene expression was normalized such that undifferentiated hPSCs=1.0. […] D) Flow cytometry strategy to purify i) CD144^+ CD45^+ CD45RA^− hPSC-derived day-9 HSC-like cells and ii) CD34^+ CD90^+ cord blood HSPCs vs. CD34^+ CD90^− cord blood non-HSCs (expanded for 3 days ex vivo prior to FACS sorting) for transcriptional analysis.\nDay 6-9 (HSC-like cell induction, 72 hours [Step 5b]). Day 6 hemogenic endothelium cells were briefly washed (DMEM/F12, Thermo Fisher) and then differentiated towards HSC-like cells in CDM3 media supplemented with Forskolin (10 μM), IL1β (5 ng/mL, R&D Systems), LIF (20 ng/mL), OSM (10 ng/mL), SB505124 (2 μM), SR1 (750 nM, Cellagen Technology) and UM171 (75 nM, ApexBio) for 72 hours. HSC-like cell induction media was refreshed every 24 hours.\nFlow cytometry. Undifferentiated and differentiated hPSCs were dissociated by incubation in TrypLE Express (Gibco) for 5 minutes at 37° C. Subsequently, dissociated cells in TrypLE Express were diluted 1:10 in DMEM/F12 and centrifuged (pelleted) at 500 g for 5 minutes. Each cell pellet was resuspended in FACS buffer (PBS+1 mM EDTA [Invitrogen]+2% v/v FBS [Atlanta Bio]+1% Penicillin/Streptomycin [Gibco]) supplemented with fluorescently-conjugated primary antibodies, and antibody staining occurred for 30 minutes on ice protected from light. After staining, cells were washed twice with FACS buffer and resuspended in 200 μL FACS buffer with DAPI (1:10,000, Biolegend) for live/dead discrimination. Samples were run on a Beckman Coulter CytoFlex analyzer (Stanford Stem Cell Institute FACS Core). For data analysis, cells were gated based on forward and side scatter with height and width used for doublet discrimination. Subsequently, live cells that were negative for DAPI were gated for all marker analyses and calculations of population frequency.\nQuantitative PCR. Undifferentiated or differentiated hPSCs were lysed in 350 μL of RLT Plus Buffer and RNA was extracted using the RNeasy Plus Mini Kit (Qiagen) according to the manufacturer's protocol. 300 ng of total RNA was reverse transcribed into cDNA for qPCR using the High-Capacity cDNA Reverse Transcription Kit (Applied Biosystems) according to the manufacturer's protocol. qPCR was performed in 384-well format as previously described (Loh et al., 2016), using gene-specific forward and reverse primers on a QuantStudio 5 qPCR machine (Thermo Fisher). Expression of all genes was normalized to the levels of the reference gene YWHAZ."}, "[3]": {"test_system": "day 1 hPSC-derived primitive streak cells", "experiment": "Differentiation of day 1 primitive streak into trunk artery cells with RA agonists (qPCR, flow cytometry)", "conditions": "for HOXA1-HOXA5 expression by day 3: RA agonist for 48 hours (days 2-3), qPCR; for formation of CD144+ CD43+ blood progenitors by day 9: RA agonist on days 2-3, then 6 further days of differentiation", "method": "as §1\nFIG. 12: Optimizing the generation of trunk artery, hemogenic endothelium and HSC-like cells from hPSCs. A) Retinoic acid (RA) signaling induces HOXA1-5 genes in hPSC-derived trunk artery cells; day 1 hPSC-derived primitive streak cells were differentiated into trunk artery cells over the course of 48 hours, in the presence or absence of RA agonists (ATRA, AM580 or TTNPB) on day 2 alone (for 24 hours), day 3 alone (for 24 hours) or day 2-3 interval (for 48 hours) B) hPSC-derived trunk artery cells can be generated in defined conditions on a defined extracellular matrix (ECM); hPSCs were plated on Geltrex (an undefined ECM matrix); bulk laminin; or recombinant vitronectin or laminin-511. C) hPSCs were differentiated into day-3 artery cells (without RA agonist) or day-3 trunk artery cells (with RA agonist); and then were further differentiated over the course of 6 further days into day-9 HSC-like cells. […] G) qPCR of hPSC differentiation into trunk arteries (day 3) and their conversion into hemogenic endothelium (day 6); qPCR data are normalized such that for each gene, expression levels in undifferentiated hPSCs=1.0.\nDay 2 (trunk dorsal lateral mesoderm induction, 24 hours [Step 2b]). Day 1 mid primitive streak cells were briefly washed (DMEM/F12, Thermo Fisher) and then differentiated towards dorsal lateral mesoderm in CDM2 media supplemented with BMP4 (40 ng/mL), GDC-0941 (2.5 μM, Cellagen Technology), Forskolin (10 μM, Tocris), SB-505124 (2 μM, Tocris), VEGF (100 ng/mL, R&D Systems), XAV939 (1 μM, Tocris), AA2P (200 μg/mL) and TTNPB (0.5 nM) for 24 hours (i.e., the same media as dorsal lateral mesoderm induction, with the addition of TTNPB). […]\nas §2"}, "[4]": {"test_system": "day 1 hPSC-derived primitive streak", "experiment": "Dorsal lateral mesoderm induction from day 1 primitive streak (qPCR on day 2)", "conditions": "day 2 of differentiation, 24 hours", "method": "FIG. 1: Efficient generation of human primitive streak and dorsal lateral mesoderm from hPSCs. A) Chronology of artery and vein development in vivo within mouse embryos (top) and in vitro from human pluripotent stem cells (hPSCs; bottom). B) Efficient generation of MIXL1^+ mid primitive streak within 24 hours of hPSC differentiation, as assayed by flow cytometry of a MIXL1-GFP reporter hESC line C) In vivo identification of candidate dorsal lateral mesoderm: from a scRNAseq profile of the E7.0 mouse embryo, Hand1^+ Elf5^− lateral mesoderm was computationally identified and then sub-clustered; marker genes shown superimposed on t-SNE (top) and in violin plots (below [CPM: counts per million]). […]\nas §2"}}, "data": [{"molecule": "Cc1cccc(-c2[nH]c(C(C)(C)C)nc2-c2ccc3c(c2)OCO3)n1", "note": "[SB505124, 2-[4-(1,3-Benzodioxol-5-yl)-2-(1,1-dimethylethyl)-1H-imidazol-5-yl]-6-methyl-pyridine]", "values": [{"measurement": "RUNX1 expression by day 4 upon individual withdrawal of the agent from hemogenic endothelium medium", "setting": "[1]", "result": "reduced"}]}, {"molecule": "CC(C)n1cnc2c(NCCc3ccc(O)cc3)nc(-c3csc4ccccc34)nc21", "note": "[SR1]", "values": [{"measurement": "expression of GATA1 and CD45RA", "setting": "[2]", "result": "decreased"}, {"measurement": "formation of hPSC-derived HSC-like cells", "setting": "[2]", "result": "enhanced"}]}, {"molecule": "C/C(=C\\c1ccc(C(=O)O)cc1)c1ccc2c(c1)C(C)(C)CCC2(C)C", "note": "[TTNPB]", "values": [{"measurement": "HOXA1-HOXA5 expression by day 3", "setting": "[3]", "result": "enhanced"}, {"measurement": "formation of CD144+ CD43+ blood progenitors by day 9", "setting": "[3]", "result": "promote"}]}, {"molecule": "Cn1nnc(-c2ccc3c(c2)[nH]c2nc(Cc4ccccc4)nc(NC4CCC(N)CC4)c23)n1", "note": "(centres unmarked) [UM171]", "values": [{"measurement": "expression of GATA1 and CD45RA", "setting": "[2]", "result": "decreased"}, {"measurement": "formation of hPSC-derived HSC-like cells", "setting": "[2]", "result": "enhanced"}]}, {"molecule": "AM580", "values": [{"measurement": "HOXA1-HOXA5 expression by day 3", "setting": "[3]", "result": "enhanced"}, {"measurement": "formation of CD144+ CD43+ blood progenitors by day 9", "setting": "[3]", "result": "promote"}]}, {"molecule": "IL1: inflammatory signal IL1β", "values": [{"measurement": "blood formation in vitro", "setting": "[2]; inflammatory signal added days 6-9", "result": "modestly promoted"}]}, {"molecule": "LIF: GP130 agonist", "values": [{"measurement": "RUNX1 expression by day 4 upon individual withdrawal of the agent from hemogenic endothelium medium", "setting": "[1]", "result": "reduced"}]}, {"molecule": "VEGF", "values": [{"measurement": "expression of SCL, LMO2 and FLI1 (dorsal lateral mesoderm specification)", "setting": "[4]", "result": "upregulated"}]}, {"molecule": "OSM: GP130 agonist (protein, UniProt P13725 26-221, looked up) Oncostatin-M: AAIGSCSKEYRVLLGQLQKQTDLMQDTSRLLDPYIRIQGLDVPKLREHCRERPGAFPSEETLRGLGRRGFLQTLNATLGCVLHRLADLEQRLPKAQDLERSGLNIEDLEKLQMARPNILGLRNNIYCMAQLLDNSDTAEPTKAGRGASQPPTPTPASDAFQRKLEGCRFLHGYHRFMHSVGRVFSKWGESPNRSRR", "values": [{"measurement": "RUNX1 expression by day 4 upon individual withdrawal of the agent from hemogenic endothelium medium", "setting": "[1]", "result": "reduced"}]}, {"molecule": "BMP: BMP agonist; BMP4 used in the experiments (protein, UniProt P12644 293-408, looked up) Bone morphogenetic protein 4: SPKHHSQRARKKNKNCRRHSLYVDFSDVGWNDWIVAPPGYQAFYCHGDCPFPLADHLNSTNHAIVQTLVNSVNSSIPKACCVPTELSAISMLYLDEYDKVVLKNYQEMVVEGCGCR", "values": [{"measurement": "expression of SCL, LMO2 and FLI1 (dorsal lateral mesoderm specification)", "setting": "[4]", "result": "upregulated"}]}]}
